Entries after “also recorded” stand apart in the source; their conditions may differ.
Experiments:
C2C12 mouse myoblasts = assay: Mitochondrial membrane potential by relative JC-1 fluorescence; format: cell-based; settings: C2C12 cells, 24 h; for Increase in mitochondrial membrane potential: vs. control
Description: The objective of the experiment was to investigate whether and how mitochondrial energy production in myoblasts is affected by hydroxytyrosol alone or in combination with other compounds. For energy production, the mitochondrial electron transport chain generates a proton gradient across the […], creating a membrane potential that powers the synthesis of ATP by the ATP synthase complex. […] If a critical concentration is reached, JC-1 forms aggregates, which changes its fluorescence properties from green to red fluorescence. […] An increased mitochondrial membrane potential indicates an improved energetic state and increased capability to generate ATP and provide energy for other cellular components. […] C2C12 cells were seeded into a 96-well cell culture plate at 1000 cells/well and cultured in growth medium (Dulbecco's modified eagle medium (DMEM) supplemented with 10% fetal bovine serum) in a standard incubator (humidified, 37° C., 5% CO2) for 24 h. […] […] After 24 h of treatment, cells were incubated with medium containing JC-1 (2 ug/ml) for 30 min at 37° C., then the staining solution was removed, DMEM without phenol red was added, and green fluorescence (ex 485 nm/em 538 nm) and red fluorescence (ex 544 nm/em 590 nm) was measured using a fluorescence plate reader (SpectraMax M5). The ratio of red to green fluorescence in each well was determined and the average and standard deviation of the quadruplicate treatments were calculated.

PGC-1α = PGC-1α protein level in adipocytes (Western blot, densitometry); format: cell-based, murine; settings: 3T3-L1 adipocytes; hydroxytyrosol 1.0 μM; vs. control
Description: Murine 3T3-L1 pre-adipocytes (American Type Culture Collection) were cultured in Dulbecco's Modified Eagle's Medium (DMEM) supplemented with 10% fetal bovine serum and allowed to reach confluence. Differentiation of pre-adipocytes was initiated with 1 μM insulin, 0.25 μM dexamethasone and 0.5 mM 3-isobutyl-1-methylxanthine in DMEM, supplemented with 10% fetal bovine serum. After 48 h, the culture medium was replaced with DMEM supplemented with 10% fetal bovine serum and 1 μM insulin. The culture medium was changed every other day with DMEM containing 10% fetal bovine serum. […] After treatment, cells were washed twice with ice-cold PBS, lysed in sample buffer (62.5 mM Tris-Cl pH 6.8, 2% SDS, 5 mM DTT) at room temperature and vortexed. Cell lysates were then boiled for 5 minutes and cleared by centrifugation (13,000 rpm, 10 minutes at 4° C.). Protein concentration was determined using the Bio-Rad DC protein assay. The soluble lysates (10 μg per lane) were subjected to 10% SDS-PAGE, proteins were then transferred to nitrocellulose membranes and blocked with 5% non-fat milk/TBST for 1 h at room temperature. […] Western blots were developed using ECL (Roche Manheim, Germany) and quantified by scanning densitometry.

[1] = tested on: mitochondrial electron transport complex I; assay: Mitochondrial complex I protein expression in adipocytes (Western blot); format: cell-based, murine; settings: 3T3-L1 adipocytes, 48 hrs, vs. control
Description: Murine 3T3-L1 pre-adipocytes (American Type Culture Collection) were cultured in Dulbecco's Modified Eagle's Medium (DMEM) supplemented with 10% fetal bovine serum and allowed to reach confluence. Differentiation of pre-adipocytes was initiated with 1 μM insulin, 0.25 μM dexamethasone and 0.5 mM 3-isobutyl-1-methylxanthine in DMEM, supplemented with 10% fetal bovine serum. After 48 h, the culture medium was replaced with DMEM supplemented with 10% fetal bovine serum and 1 μM insulin. The culture medium was changed every other day with DMEM containing 10% fetal bovine serum. […] After treatment, cells were washed twice with ice-cold PBS, lysed in sample buffer (62.5 mM Tris-Cl pH 6.8, 2% SDS, 5 mM DTT) at room temperature and vortexed. Cell lysates were then boiled for 5 minutes and cleared by centrifugation (13,000 rpm, 10 minutes at 4° C.). Protein concentration was determined using the Bio-Rad DC protein assay. The soluble lysates (10 μg per lane) were subjected to 10% SDS-PAGE, proteins were then transferred to nitrocellulose membranes and blocked with 5% non-fat milk/TBST for 1 h at room temperature. Membranes were incubated with primary antibodies directed against PPAR-γ (1:1000), PGC-1α (1:1000), α-tubulin (1:10 000), Complex I (1:2000), Complex II (1:2000), Complex III (1:2000) and Complex V (1:2000) in 5% milk/TBST at 4° C. overnight. After washing membranes with TBST three times, membranes were incubated with horseradish peroxidase-conjugated secondary antibody for 1 h at room temperature. Western blots were developed using ECL (Roche Manheim, Germany) and quantified by scanning densitometry.

NC(=O)c1ncn([C@@H]2O[C@H](CO)[C@@H](O)[C@H]2O)c1N [AICAR, aminoimidazole carboxamide ribonucleotide]
Effect on mitochondrial membrane potential (red/green JC-1 fluorescence ratio) (C2C12 mouse myoblasts; 500 uM): increase in mitochondrial potential; also recorded: increase mitochondrial membrane potential | Increase in mitochondrial membrane potential (C2C12 mouse myoblasts; 500 μM): 16%

Cn1c(=O)c2c(ncn2C)n(C)c1=O [Caffeine, caffeine]
Effect on mitochondrial membrane potential (red/green JC-1 fluorescence ratio) (C2C12 mouse myoblasts; 200 uM alone): no significant effect | Increase in mitochondrial membrane potential (C2C12 mouse myoblasts; 200 μM alone): −4%

OCCc1ccc(O)c(O)c1 [Hydroxytyrosol, 3,4-dihydroxyphenylethanol]
Effect on mitochondrial membrane potential (red/green JC-1 fluorescence ratio) (C2C12 mouse myoblasts; 1 uM): no significant effect | Increase in mitochondrial membrane potential (C2C12 mouse myoblasts; 1 μM): 1% | Increase in mitochondrial membrane potential (C2C12 mouse myoblasts; 10 μM): 11% | PGC-1α protein expression (PGC-1α:α-tubulin ratio), maximum (PGC-1α): 205±52% | Mitochondrial electron transport complex I protein ([1]; 0.1 μM): 131±16% | Mitochondrial electron transport complex I protein ([1]; 1.0 μM): 163±31% | Mitochondrial electron transport complex I protein ([1]; 10.0 μM): 138±21%

C[N+](C)(C)C[C@H](O)CC(=O)[O-] [L-carnithine]
Effect on mitochondrial membrane potential (red/green JC-1 fluorescence ratio) (C2C12 mouse myoblasts; 200 uM alone): no significant effect | Increase in mitochondrial membrane potential (C2C12 mouse myoblasts; 200 μM alone): 0%

Reference: patent publication US9446006B2, “Hydroxytyrosol combinations for enhancing mitochondrial function and energy production” (DSM IP ASSETS B.V., priority 2009, dated 2016)
